Experimental data taken from patent US12297453B2, “Generation of norepinephrine neurons from human stem cells” (Wisconsin Alumni Research Foundation, priority 2020, dated 2025).

What was measured:
Type in all cases: cell-based, human
[1] = system: hindbrain R1 neuroepithelial cells; test: NE progenitor fate specification of hindbrain R1 neuroepithelial cells (qPCR of MASH1, PHOX2B, PHOX2A and regional markers); conditions: for effect on expression of MASH1, PHOX2B, and PHOX2A: day 6 to day 12
Source text: (§1) On day 5, change the medium without SB431542. […] Cells were feed daily.
Development of NE neurons in LC depends on expression of Mash1, Phox2b and Phox2a in a stage dependent manner. See Pattyn et al., 2000, Mol Cell Neurosci, 15:235-243; Morin et al., 1997, Neuron, 18:411-423; Hirsch et al., 1998, Development, 125:599-608. Mash1 is expressed in the proliferative progenitor cells, while Phox2b and Phox2a are expressed when cells became postmitotic precursors and neurons. Pattyn et al., 2000. […] Thus, the effects of FGF8 and BMPs were tested in the second week of differentiation (FIG. 2B).
In further experiments it was determined whether the unique role of Activin A on human NE neuron specification was regional identity dependent. Neuroepithelial cells ranging from anterior forebrain to posterior hindbrain were obtained using different doses of CHIR99021, and then these neuroepithelial cells were treated with 25 ng/ml Activin A for 6 days.
Specifically, gene expression of MASH1 and PHOX2A/2B at different times was observed when NE progenitors were cultured in the presence of a low dose of Activin A (25 ng/ml) or a high dose of Activin A (125 ng/ml).
To determine whether blockade of BMP pathway or SHH pathway could facilitate NE specification, which could narrow the domain along the dorsal to ventral axis, hindbrain R1 neuroepithelial cells were treated with Activin A with or without BMP and SHH antagonist (FIGS. 3D-3I).

[2] = system: hESCs (H9 line); test: Patterning of hESCs to hindbrain R1 neuroepithelial cells with a CHIR99021 dose series (RT-qPCR, flow cytometry, immunocytochemistry)
Experimental: as §1
gRNA was designed according to Benchling. Donor plasmid was generated by NEBuilder® HiFi DNA Assembly Master Mix (NEB, E2621S). Briefly, hPSCs were digested by TrypLE Express. Gene Pulser Xcell (Bio-Rad) was used for CRISPR/Cas9 delivery. Two-million cells were electroporated with 15 μg of sgRNA plasmid (pLenti-CRISPR) with 30 μg donor plasmid. Cells were plated at ˜150,000 cells/well of 6-well plate. Starting 24 hours after electroporation, 0.5 μg/ml puromycin were added to the culture medium. After 3 days of puromycin selection, hPSCs were switched to their normal culture medium and fed every other day until approximately 1-2 weeks after electroporation when distinct colonies were established. • Cell transplantation: Small aggregates of NE neural progenitors (day 10-day 12) were collected and suspended in artificial cerebral spinal fluid (aCSF) containing Rock inhibitor (0.5 μM), at a concentration of 100,000 cells/μl. 1 μl of cells were slowly injected into the left cortex (AP=+0.0 mm, ML=+1.8 mm, DV=−1.7 mm, from skull) of adult SCID mice (8-12 weeks) that were anesthetized with 1%-2% isoflurane mixed in oxygen. • Immunocytochemistry and flow cytometry: Immunocytochemistry was performed as described previously. See Huang et al., 2016, Sci Rep, 6:32600, doi:10.1038/srep32600. In brief, cells on coverslips were fixed in 4% neutral-buffered paraformaldehyde (PFA) for 10 minutes (min) at room temperature. Following rinsing with PBS, these cells were incubated in 0.2% Triton X-100 (in phosphate buffered saline (PBS)) for 10 min followed by 10% donkey serum (in PBS) at room temperature for 1 hour (h). The cells were then incubated with primary antibodies diluted in 5% donkey serum in 0.1% Triton X100 (in PBS) at 4° C. overnight, followed by fluorescently conjugated secondary antibodies at room temperature for 30 min. The nuclei were stained with Hoechst. Images were collected with a Nikon A1 laser-scanning confocal microscope. Flow cytometry was performed using Transcription Factor Buffer Set which is designed for transcription factor staining following manufacturer's instruction. Briefly, single cells were prepared using TrypLE Express Enzyme and fixed in the fixation buffer provided by the kit at 2-8° C. for 45 min. After 3 washings with the permeable buffer, primary antibodies were added to cells for 45 min at 2-8° C. in a light-tight box. Cells were washed three times before fluorescently conjugated secondary antibodies. Second antibodies were incubated with cells for 45 minutes at 2-8° C. in a light-tight box and followed by washing three times. After the last wash, cells were suspended in washing buffer and analyzed by flow cytometry (BD LSR or BD LSRII). Data analysis was performed using FlowJo. • ELISA: To detect NE release into medium during neuronal differentiation, supernatant was collected at indicated time points along differentiation. Enzyme-linked immunosorbent assay (ELISA) were performed using a Noradrenaline (Norepinephrine) ELISA Assay Kit (EAGLE, NOR31-K01) following the manufacturer's instructions. • Electrophysiology: Whole-cell patch-clamp recordings were made from human ESC-derived NE neurons at 4 weeks. Briefly, the NE neurons were held at −70 mV to record the Na+/K+ channel activities with voltage-clamp model. For recording action potentials, the cells were held at 0 pA with the current-clamp model, and with the steps of injected currents from −50 pA to +50 pA. The bath solution consisted of 135 mM NaCl, 3 mM KCl, 2 mM CaCl2), 1 mM MgCl2, 10 mM HEPES, 11 mM glucose, 10 mM sucrose, pH7.4. […]

[3] = system: GRABNE1m sensor-expressing NE neurons; test: Fluorescence imaging of GRABNE1m sensor cells; conditions: 1 μM

Molecule: CC1=C2C[C@H]3[C@@H](CC=C4C[C@@H](O)CC[C@@]43C)[C@@H]2CC[C@]12O[C@@H]1C[C@H](C)CN[C@H]1[C@H]2C [cyclopamine]
- effect on NE progenitor markers MASH1 and PHOX2A/2B ([1]; 2 μM, with Activin A): only minor effects
- expression of dorsal markers MATH1 and OLIG3 ([1]; 2 μM, with Activin A): increased expression

Molecule: TGF-β1: transforming growth factor β1
- effect on expression of MASH1, PHOX2B, and PHOX2A ([1]; 10 ng/ml): not

Molecule: Cc1c[nH]c(-c2cnc(NCCNc3ccc(C#N)cn3)nc2-c2ccc(Cl)cc2Cl)n1 [CHIR99021]
- cells expressing EN1 by immunocytochemistry ([2]; 1 μM, day 6): majority of the cells
- cells positive for OTX2 and HOXA2 by immunocytochemistry ([2]; 1 μM, day 6): few or no cells
- concentration above which EN1, EN2, PAX2 mRNA began to down-regulate and HOXA2, GBX2 increased ([2]; 6 days, mRNA level): above 0.6 μM
- concentration at which PHOX2B and PHOX2A reached their highest level ([2]; dose increment, 6 days): around 1 μM
- expression of midbrain transcription factor genes EN1, EN2, PAX2 ([2]; increasing concentrations over 6 days): upregulated
- expression of OTX2 at mRNA and protein levels ([2]; increasing concentrations over 6 days, RT-qPCR and flow cytometry): down-regulated

Molecule: NC[C@H](O)c1ccc(O)c(O)c1 [Norepinephrine]
- intensity of GRABNE1m sensor fluorescence [3]: increased

Molecule: CC(C)Oc1ccc(-c2cnc3c(-c4ccnc5ccccc45)cnn3c2)cc1 [DMH1, 4-[6-(4-Isopropoxyphenyl)pyrazolo[1,5-a]pyrimidin-3-yl]quinoline]
- increase of NE progenitor markers ([1]; 2 μM, with Activin A): 1.5 fold

B1: FGF8: growth factor tested for NE fate specification (protein, UniProt P55075 23-233, looked up)
Fibroblast growth factor 8: QEGPGRGPALGRELASLFRAGREPQGVSQQHVREQSLVTDQLSRRLIRTYQLYSRTSGKHVQVLANKRINAMAEDGDPFAKLIVETDTFGSRVRVRGAETGLYICMNKKGKLIAKSNGKGKDCVFTEIVLENNYTALQNAKYEGWYMAFTRKGRPRKGSKTRQHQREVHFMKRLPRGHHTTEQSLRFEFLNYPPFTRSLRGSQRTWAPEPR
- effect on expression of MASH1, PHOX2B, and PHOX2A ([1]; 100 ng/ml): no obvious effects

B2: BMP4: bone morphogenetic protein (protein, UniProt P12644 293-408, looked up)
Bone morphogenetic protein 4: SPKHHSQRARKKNKNCRRHSLYVDFSDVGWNDWIVAPPGYQAFYCHGDCPFPLADHLNSTNHAIVQTLVNSVNSSIPKACCVPTELSAISMLYLDEYDKVVLKNYQEMVVEGCGCR
- effect on expression of MASH1, PHOX2B, and PHOX2A ([1]; 10 ng/ml): no obvious effects

B3: Activin A: ligand in TGF-β pathway directing NE cell fate specification (protein, UniProt P08476 311-426, looked up)
Inhibin beta A chain: GLECDGKVNICCKKQFFVSFKDIGWNDWIIAPSGYHANYCEGECPSHIAGTSGSSLSFHSTVINHYRMRGHSPFANLKSCCVPTKLRPMSMLYYDDGQNIIKKDIQNMIVEECGCS
- concentration at which MASH1 reached maximum expression level [1]: 25 ng/mL
- concentration at which PHOX2B and PHOX2A reached maximum level [1]: 250 ng/mL
- effect on expression of MASH1, PHOX2B, and PHOX2A ([1]; 10 ng/ml): positive effect
- PHOX2B expression, high dose (125 ng/ml) versus low dose (25 ng/ml) ([1]; day 9): similar
- MASH1 expression, high dose (125 ng/ml) versus low dose (25 ng/ml) ([1]; day 9 to day 12): no obvious difference
- PHOX2B expression, high dose (125 ng/ml) versus low dose (25 ng/ml) ([1]; day 12): over 2 fold
- increase of MASH1, PHOX2B, and PHOX2A expression with dose ([1]; series of Activin A concentrations): dose-dependent manner

B4: BMP7: bone morphogenetic protein (protein, UniProt P18075 293-431, looked up)
Bone morphogenetic protein 7: STGSKQRSQNRSKTPKNQEALRMANVAENSSSDQRQACKKHELYVSFRDLGWQDWIIAPEGYAAYYCEGECAFPLNSYMNATNHAIVQTLVHFINPETVPKPCCAPTQLNAISVLYFDDSSNVILKKYRNMVVRACGCH
- effect on expression of MASH1, PHOX2B, and PHOX2A ([1]; 10 ng/ml): no obvious effects

B5: BMP5: bone morphogenetic protein (protein, UniProt P22003 317-454, looked up)
Bone morphogenetic protein 5: AANKRKNQNRNKSSSHQDSSRMSSVGDYNTSEQKQACKKHELYVSFRDLGWQDWIIAPEGYAAFYCDGECSFPLNAHMNATNHAIVQTLVHLMFPDHVPKPCCAPTKLNAISVLYFDDSSNVILKKYRNMVVRSCGCH
- effect on expression of MASH1, PHOX2B, and PHOX2A ([1]; 10 ng/ml): no obvious effects
